Measurements from patent US10759795B2, “Aza-A-ring indenoisoquinoline topoisomerase I poisons” (Purdue Research Foundation, priority 2016, dated 2020).
Several values for one entry are separate records, joined by “and”; a condition that tells them apart may be missing. Equal values may be shown once. Where a name gives a salt, the structure may show the parent alone. Read-outs that look alike come from different tables or passages of the source.

Experiments:
Top1 [1] = biological target: T1, Top1 (Homo sapiens, UniProt P11387); assay: Top1-mediated DNA cleavage assay; type: biochemical; details: score based on the activity of 1 μM 1 (camptothecin); tested at 0.1, 1, 10, 100 μM
T1 sequence (P11387 1-765): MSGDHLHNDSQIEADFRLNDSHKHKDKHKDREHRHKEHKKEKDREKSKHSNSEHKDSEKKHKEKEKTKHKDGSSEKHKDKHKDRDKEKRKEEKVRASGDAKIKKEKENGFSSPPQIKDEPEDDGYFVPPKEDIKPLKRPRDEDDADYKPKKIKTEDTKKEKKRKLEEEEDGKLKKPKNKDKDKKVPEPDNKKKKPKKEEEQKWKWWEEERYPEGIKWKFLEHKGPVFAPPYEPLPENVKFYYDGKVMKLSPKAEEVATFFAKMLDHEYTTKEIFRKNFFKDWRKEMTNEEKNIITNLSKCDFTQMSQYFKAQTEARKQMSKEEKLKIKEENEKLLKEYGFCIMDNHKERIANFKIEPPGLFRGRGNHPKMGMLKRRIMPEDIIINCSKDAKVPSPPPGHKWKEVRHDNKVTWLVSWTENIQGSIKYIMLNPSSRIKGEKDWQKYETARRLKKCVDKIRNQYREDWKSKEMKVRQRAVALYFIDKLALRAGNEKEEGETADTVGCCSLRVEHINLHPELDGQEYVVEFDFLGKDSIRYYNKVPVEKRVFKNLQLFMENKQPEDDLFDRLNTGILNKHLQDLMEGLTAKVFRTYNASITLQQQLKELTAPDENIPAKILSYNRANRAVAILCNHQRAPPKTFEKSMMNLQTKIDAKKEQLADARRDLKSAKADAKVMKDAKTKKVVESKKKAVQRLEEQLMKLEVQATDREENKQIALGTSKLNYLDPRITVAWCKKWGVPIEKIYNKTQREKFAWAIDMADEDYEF
Procedure: Approximately 2 nM radiolabeled DNA substrate was incubated with recombinant Top in 20 μL of reaction buffer [10 mM Tris-HCl (pH 7.5), 50 mM KCl, 5 mM MgCl2, 0.1 mM EDTA, and 15 μg/mL BSA] at 25° C. for 20 min in the presence of various concentrations of test compounds. […] Aliquots of each reaction mixture were subjected to 20% denaturing PAGE.
The Top1-mediated DNA cleavage assay was used to measure Top1 inhibitory activity. This assay measures the ability of the compound to stabilize DNA cleavage in a 3′-[^32P]-labeled DNA substrate via Top1 poisoning.

recombinant TDP1 = recombinant TDP1 (Homo sapiens, UniProt Q9NUW8); assay: Recombinant TDP1 assay; type: biochemical; details: recombinant TDP1, gel-based; read-out: TDP1: IC50 values for the inhibition of TDP1
Chain of recombinant TDP1 (Q9NUW8 whole entry, species assumed): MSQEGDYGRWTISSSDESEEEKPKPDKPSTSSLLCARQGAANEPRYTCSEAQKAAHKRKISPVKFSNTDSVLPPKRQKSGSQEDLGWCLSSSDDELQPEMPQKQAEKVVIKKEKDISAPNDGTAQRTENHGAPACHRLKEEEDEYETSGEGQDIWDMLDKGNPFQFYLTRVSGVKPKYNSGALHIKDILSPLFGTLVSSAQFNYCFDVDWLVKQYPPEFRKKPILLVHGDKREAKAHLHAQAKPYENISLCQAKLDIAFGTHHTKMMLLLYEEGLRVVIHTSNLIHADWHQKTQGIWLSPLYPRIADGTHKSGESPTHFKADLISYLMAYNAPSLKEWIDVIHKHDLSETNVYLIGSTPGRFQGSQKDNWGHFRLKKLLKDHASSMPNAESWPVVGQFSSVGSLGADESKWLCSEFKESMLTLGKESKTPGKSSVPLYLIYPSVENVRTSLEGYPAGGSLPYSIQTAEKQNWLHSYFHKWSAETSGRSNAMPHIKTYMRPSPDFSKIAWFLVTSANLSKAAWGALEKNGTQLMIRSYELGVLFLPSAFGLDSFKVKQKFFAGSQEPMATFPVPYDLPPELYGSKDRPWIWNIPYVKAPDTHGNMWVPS
Procedure: A 5′-[^32P]-labeled single-stranded DNA oligonucleotide containing a 3′-phosphotyrosine (N14Y) was incubated at 1 nM with 10 pM recombinant TDP1 in the absence or presence of inhibitor for 15 min at room temperature in the LMP1 assay buffer containing 50 mM Tris HCl, pH 7.5, 80 mM KCl, 2 mM EDTA, 1 mM DTT, 40 μg/mL BSA, and 0.01% Tween-20^18. […] Gels were dried and exposed to a PhosphorImager screen (GE Healthcare). Gel images were scanned using a Typhoon 8600 (GE Healthcare), and densitometry analyses were performed using ImageQuant software (GE Healthcare).
TDP1 is involved in the repair of DNA damage that results from the action of Top1 poisons, which induce the formation of DNA-protein adducts that include a 3′-phosphotyrosyl linkage. The TDP1 inhibition assay assesses a test agent's ability to inhibit the enzyme-induced cleavage of a 5′-^32P, 3′-phosphotyrosyl-DNA oligonucleotide, called N14Y. Cleavage of the phosphodiester bond between the 3′-phosphate and tyrosine releases […] from the DNA oligonucleotide. The enzyme-processed DNA oligonucleotide lacking its 3′-phosphotyrosyl moiety is designated N14P. A schematic representation of the assay and a representative gel are shown in FIG. 2, and the TDP1 screening results are listed in Table 1.

recombinant human TDP2 = biological target: T2, recombinant human TDP2 (Homo sapiens, UniProt O95551); assay: Recombinant TDP2 assay; type: biochemical; details: recombinant human TDP2, gel-based; read-out: TDP2: IC50 values for the inhibition of TDP2
T2 sequence (O95551 1-362): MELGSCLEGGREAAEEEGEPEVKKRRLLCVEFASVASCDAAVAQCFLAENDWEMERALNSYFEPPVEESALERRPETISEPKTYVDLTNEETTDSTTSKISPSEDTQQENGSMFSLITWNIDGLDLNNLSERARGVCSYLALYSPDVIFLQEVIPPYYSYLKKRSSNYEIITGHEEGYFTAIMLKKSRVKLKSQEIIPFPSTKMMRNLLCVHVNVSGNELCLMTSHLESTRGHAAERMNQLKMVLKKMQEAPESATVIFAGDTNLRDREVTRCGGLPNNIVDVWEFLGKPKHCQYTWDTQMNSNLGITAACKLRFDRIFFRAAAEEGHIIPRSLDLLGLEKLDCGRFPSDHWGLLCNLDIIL
Excerpt: Reactions were terminated and treated similarly to recombinant TDP1 reactions.
TDP2, as opposed to TDP1, cleaves the phosphotyrosyl linkage in 5′-phosphotyrosyl-DNA oligonucleotides.

[2] = system: 60 human cancer cell lines; assay: NCI-60 single-dose cytotoxicity assay; type: cell-based; details: mean-graph midpoint of percent growth of 60 human cancer cell lines, 10 μM drug, 48 h, relative to no-drug control and time zero
Procedure: (§1) The new indenoisoquinolines were evaluated for cancer cell growth inhibitory activities. The National Cancer Institute's NCI-60 cytotoxicity assay measures the ability of test agents to inhibit the growth of approximately 60 different cancer cell lines. In the initial single-dose assay, cells are treated with a 10 μM dose of test agent. The growth of treated cells versus untreated cells is then compared. If a test agent induces a sufficiently low mean growth percent, it is promoted to five-dose testing to determine a mean graph midpoint (MGM) GI50 value. In five-dose testing, cells are treated with test agent concentrations ranging from 10^−8 to 10^−4 M. The concentration required to achieve 50% growth inhibition in a particular cell line is calculated. In situations in which this value is greater than 100 μM or less than 0.01 μM, it is recorded as 100 μM and 0.01 μM, respectively. The values for each of the tested cell lines are averaged to obtain a mean graph midpoint (MGM) GI50 value. MGM GI50 values are often, but not always, determined from two separate rounds (Table 1).

Lung, HOP-62 = assay: NCI-60 five-dose cytotoxicity assay, HOP-62; details: Homo sapiens, HOP-62, read-out: Cytotoxicity GI50, Lung, HOP-62
Procedure: as §1

Colon, HCT-116 = assay: NCI-60 five-dose cytotoxicity assay, HCT-116; details: Homo sapiens, HCT-116, read-out: Cytotoxicity GI50, Colon, HCT-116
Procedure: as §1

Melanoma UACC-62 = assay: NCI-60 five-dose cytotoxicity assay, UACC-62; details: Homo sapiens, UACC-62, read-out: Cytotoxicity GI50, Melanoma UACC-62
Procedure: as §1

Ovarian, OVCAR-3 = assay: NCI-60 five-dose cytotoxicity assay, OVCAR-3; details: Homo sapiens, OVCAR-3, read-out: Cytotoxicity GI50, Ovarian, OVCAR-3
Procedure: as §1

Renal, SN12C = assay: NCI-60 five-dose cytotoxicity assay, SN12C; details: Homo sapiens, read-out: Cytotoxicity GI50, Renal, SN12C
Procedure: as §1

Prostate, DU-145 = assay: NCI-60 five-dose cytotoxicity assay, DU-145; details: Homo sapiens, DU-145, read-out: Cytotoxicity GI50, Prostate, DU-145
Procedure: as §1

Breast, MCF7 = assay: NCI-60 five-dose cytotoxicity assay, MCF7; details: Homo sapiens, MCF7, read-out: Cytotoxicity GI50, Breast, MCF7
Procedure: as §1

[3] = system: approximately 60 different cancer cell lines; assay: NCI-60 five-dose cytotoxicity assay, mean graph midpoint; type: cell-based; details: Homo sapiens, read-out: MGM: mean graph midpoint of growth inhibition (GI50)
Procedure: as §1

CNS, SF-539 = assay: NCI-60 five-dose cytotoxicity assay, SF-539; details: Homo sapiens, CNSSF-539, read-out: Cytotoxicity GI50, CNS, SF-539
Procedure: as §1

Top1 [4] = biological target: T1, Top1; details: background statement; cited from earlier work
[5] = 5 dose assay, 10^−8-10^−4 M, average over tested cell lines

SMILES	Top 1: compound-induced DNA cleavage due to Top1 poisoning (Top1 [1])	IC50 (recombinant TDP1)	IC50 (recombinant human TDP2) [nM]	activity at 10 µM [2] [%]	GI50 (Lung, HOP-62) [nM]	GI50 (Colon, HCT-116) [nM]	GI50 (Melanoma UACC-62) [nM]	GI50 (Ovarian, OVCAR-3) [nM]	GI50 (Renal, SN12C) [nM]	GI50 (Prostate, DU-145) [nM]	GI50 (Breast, MCF7) [nM]	GI50 [3, 5] [nM]	melting point [°C]	Mean Growth % [2] [%]	GI50 (CNS, SF-539) [nM]	GI50 [3] [nM]	Top1 inhibitory activity (Top1 [4])
CN(C)CCCn1c2c(c3cnccc3c1=O)C(=O)c1ccccc1-2 [Compound 45, 2-Aza-5,6-dihydro-6-(3-(dimethylamino)propyl)-5,11-dioxo-indeno[1,2-c]isoquinoline]	++ (++, between 50 and 75% activity)	63000 nM	37000	-8.83	398	245	309	1100	288	490	245	437	177 to 178				
CN(C)CCCn1c2c(c3cccnc3c1=O)C(=O)c1ccccc1-2 [Compound 47, 4-Aza-5,6-dihydro-6-(3-(dimethylamino)propyl)-5,11-dioxo-indeno[1,2-c]isoquinoline]	+++ (+++, between 75 and 95% activity)	~111000 nM	> 111000	5.45		437	1290	2400	1120	1910	363	1260	183 to 184				
CN(C)CCCn1c2c(c3ccncc3c1=O)C(=O)c1ccccc1-2 [Compound 46, 3-Aza-5,6-dihydro-6-(3-(dimethylamino)propyl)-5,11-dioxo-11H-indeno[1,2-c]isoquinoline]	++ (++, between 50 and 75% activity)					380		2000				977	168 to 170				
O=C1c2ccccc2-c2c1c1cnccc1c(=O)n2CCCn1ccnc1 [Compound 41, 2-Aza-5,6-dihydro-6-(3-(1H-imidazol-1-yl)propyl)-5,11-dioxo-indeno[1,2-c]isoquinoline]	++ (++, between 50 and 75% activity)	> 111000 nM	> 111000										274 to 275	67.8			
O=C1c2ccccc2-c2c1c1cnccc1c(=O)n2C[C@H](O)CO [Compound 49, (2′S)-2-Aza-5,6-dihydro-6-(2′,3′-dihydroxypropyl)-5,11-dioxo-indeno[1,2-c]isoquinoline]	+ (+, between 20 and 50%activity)	> 111000 nM	> 111000										229 to 232	85.5			
CC[C@@]1(O)C(=O)OCc2c1cc1n(c2=O)Cc2cc3ccccc3nc2-1 [Compound 1, camptothecin, reference compound]					10	30	10	220	20	10	10				10	40.5	
O=C1c2ccccc2-c2c1c1ccncc1c(=O)n2CCCn1ccnc1 [Compound 42, 3-Aza-5,6-dihydro-6-(3-(1H-imidazol-1-yl)propyl)-5,11-dioxo-11H-indeno[1,2-c]isoquinoline]	+ (+, between 20 and 50%activity)	> 111000 nM	> 111000										251 to 252	47.5			
O=C1c2ccccc2-c2c1c1ccccc1c(=O)n2CCCNCCCNCCCn1c2c(c3ccccc3c1=O)C(=O)c1ccccc1-2 [Compound 5]																	potent
NCCCn1c2c(c3cccnc3c1=O)C(=O)c1ccccc1-2 [Compound 60, 6-(3-Aminopropyl)-4-aza-5,6-dihydro-5,11-dioxo-indeno[1,2-c]isoquinoline Dihydrochloride]	++ (++, between 50 and 75% activity)	60000 nM and > 111000 nM	> 111000	12.2	1450	537	1350	2290	1120	1910	417	1510					
CN(C)CCCn1c2c(c3ncccc3c1=O)C(=O)c1ccccc1-2 [Compound 44, 1-Aza-5,6-dihydro-6-(3-(dimethylamino)propyl)-5,11-dioxo-indeno[1,2-c]isoquinoline]	++ (++, between 50 and 75% activity)	90000 nM	> 111000										187 to 188	44.4			
